The record followed here is ChEMBL document CHEMBL1133815, “Anti-Trypanosoma activity of some natural stilbenoids and synthetic related heterocyclic compounds” (Bioorg Med Chem Lett, 2001).

The IC50 is the concentration at which inhibition is half-maximal.

Structures are written as SMILES. ≈ marks a conversion by molar mass, not a printed value. Where “and” joins values, the source holds several entries; their conditions need not be identical. Equal entries are not always repeated. Bounds are passed on as bounds.

The subject of assay [1] is Trypanosoma cruzi. The assay is described as follows: Inhibitory concentration against trypomastigotes (Y strain) of Trypanosoma cruzi; Inactive. Type of assay: functional, organism-based.
For assay [2], the system named is Trypanosoma cruzi. The assay is described as follows: Inhibitory concentration against epimastigotes (Tulahuen strain) of Trypanosoma cruzi; Inactive. Type of assay: functional, organism-based.
In assay [3] the test system is Trypanosoma cruzi. Description: Inhibitory concentration against Epimastigotes (Tulahuen strain) of Trypanosoma cruzi. It counts as functional, organism-based.
Assay [4] is described as follows: Ratio of inhibitory concentration to that of reference drug was determined. Type of assay: functional.
In assay [5] the test system is Trypanosoma cruzi. The assay is described as follows: Inhibitory concentration against Trypomastigotes (Y strain) of Trypanosoma cruzi. It counts as functional, organism-based.
Setting [6] is: Trypanosoma cruzi, read-out: IC50.

Compound `OC1(Cc2ccccc2)c2ccccc2C2=NCCN21` (stereo unspecified) came in with an IC50 in assay [1] above 100 µg/mL.
Take `O=C(C(=O)c1ccccc1C(=O)N1CCCCC1)c1ccc(Cl)cc1`: the IC50 in assay [2] and in assay [1] was above 100 µg/mL each time.
`O=C(C(=O)c1ccccc1C(=O)N1CCCCC1)c1ccc2c(c1)OCO2`: the IC50 in assay [2] and in assay [1] was above 100 µg/mL each time.
Take `COc1cc(Cc2nn(C)c(=O)c3ccccc23)cc(OC)c1OC`: the IC50 in assay [2] and in assay [1] was above 100 µg/mL each time.
For the compound `Cn1nc(Cc2ccc(Cl)cc2)c2ccccc2c1=O`, the IC50 in assay [2] and in assay [1] was above 100 µg/mL in each case.
Consider `Oc1nnc(Cc2ccc(Cl)cc2)c2ccccc12`, for which the IC50 in assay [2] and in assay [1] was above 100 µg/mL throughout.
Turning to `O=C(Cn1ccnc1[N+](=O)[O-])NCc1ccccc1` [BENZNIDAZOLE], the IC50 in assay [3] is 7.4 µg/mL and 30 µM. Further, the Ratio in assay [4] came to 1.
For the compound `OC1(Cc2ccc(Cl)cc2)c2ccccc2C2=NCCN21` (stereo unspecified), the IC50 in assay [5] (setting [6]) was found to be 7.9 µM; in assay [3], 33.6 µM; in assay [2], 10 µg/mL (≈ 33.5 µM); in assay [1], 2.3 µg/mL (≈ 7.7 µM).
Consider `COc1ccc(CCc2cc(O)cc(OC)c2C(=O)O)cc1` [ISONOTHOLAENIC ACID], for which the IC50 in assay [1] was above 100 µg/mL.
For the compound `COc1ccc(CC(=O)c2ccccc2C(=O)N2CCCCC2)cc1`, the IC50 in assay [2] and in assay [1] was above 100 µg/mL throughout.
As for `COc1ccc(C(=O)C(=O)c2ccccc2C(=O)N2CCCC2)cc1`, the IC50 in assay [2] and in assay [1] was above 100 µg/mL in each case.
With `COc1ccc(C(=O)C(=O)c2ccccc2C(=O)N2CCCCC2)cc1OC`, the IC50 in assay [2] and in assay [1] was above 100 µg/mL in each case.
Take `O=C1O/C(=C\c2ccc(Cl)cc2)c2ccccc21`: the IC50 in assay [2] and in assay [1] was above 100 µg/mL in each case.
`COc1ccc(CCc2cc(OC(C)=O)cc(OC)c2C(=O)O)cc1`: the IC50 in assay [2] and in assay [1] was above 100 µg/mL throughout.
For the compound `Oc1nnc(Cc2ccc3c(c2)OCO3)c2ccccc12`, the IC50 in assay [2] and in assay [1] was above 100 µg/mL in each case.
For the compound `COc1cc(CC2(O)c3ccccc3C3=NCCN32)cc(OC)c1OC` (stereo unspecified), the IC50 in assay [2] and in assay [1] was above 100 µg/mL throughout.
On to `COc1cc(CC2(O)c3ccccc3C3=NCCCN32)cc(OC)c1OC` (stereo unspecified), for which the IC50 in assay [2] and in assay [1] was above 100 µg/mL each time.
Take `COc1ccc(Cc2nn(C)c(=O)c3ccccc23)cc1OC`: the IC50 in assay [2] and in assay [1] was above 100 µg/mL each time.
As for `COc1cc(/C=C2\OC(=O)c3ccccc32)cc(OC)c1OC`, the IC50 in assay [2] and in assay [1] was above 100 µg/mL each time.
`COc1ccc(C(=O)C(=O)c2ccccc2C(=O)N2CCCCC2)cc1`: the IC50 in assay [2] and in assay [1] was above 100 µg/mL throughout.
On to `COc1cc(Cc2nnc(O)c3ccccc23)cc(OC)c1OC`, for which the IC50 in assay [2] and in assay [1] was above 100 µg/mL each time.
Regarding `COc1ccc(/C=C2\OC(=O)c3ccccc32)cc1OC`, the IC50 in assay [2] and in assay [1] was above 100 µg/mL in each case.
Consider `Cn1nc(Cc2ccc3c(c2)OCO3)c2ccccc2c1=O`, for which the IC50 in assay [2] and in assay [1] was above 100 µg/mL each time.
The compound `COc1ccc(CC2(O)c3ccccc3C3=NCCN32)cc1` (stereo unspecified) gave an IC50 in assay [1] above 100 µg/mL.
Regarding `O=C(Cc1ccccc1)c1ccccc1C(=O)N1CCCCC1`, the IC50 in assay [2] and in assay [1] was above 100 µg/mL throughout.
Take `COc1ccc(CC2(O)c3ccccc3C3=NCCCN32)cc1OC` (stereo unspecified): the IC50 in assay [2] and in assay [1] was above 100 µg/mL in each case.
With `OC1(Cc2ccccc2)c2ccccc2C2=NCCCN21` (stereo unspecified), the IC50 in assay [1] was above 100 µg/mL.
In the case of `COc1ccc(CC(=O)c2ccccc2C(=O)N2CCCCC2)cc1OC`, the IC50 in assay [2] and in assay [1] was above 100 µg/mL each time.
As to `CCNC(=O)c1ccccc1C(=O)C(=O)c1ccc(OC)cc1`, the IC50 in assay [2] and in assay [1] was above 100 µg/mL throughout.
For `COc1ccc(Cc2nnc(O)c3ccccc23)cc1OC`, the IC50 in assay [2] and in assay [1] was above 100 µg/mL each time.
In the case of `OC1(Cc2ccc3c(c2)OCO3)c2ccccc2C2=NCCCN21` (stereo unspecified), the IC50 in assay [2] and in assay [1] was above 100 µg/mL in each case.
On to `O=C(Cc1ccc2c(c1)OCO2)c1ccccc1C(=O)N1CCCCC1`, for which the IC50 in assay [2] and in assay [1] was above 100 µg/mL throughout.
With `O=C1O/C(=C\c2ccc3c(c2)OCO3)c2ccccc21`, the IC50 in assay [2] and in assay [1] was above 100 µg/mL throughout.
With `COc1ccc(CC2(O)c3ccccc3C3=NCCN32)cc1OC` (stereo unspecified), the IC50 in assay [2] and in assay [1] was above 100 µg/mL throughout.
`COc1cc(CC(=O)c2ccccc2C(=O)N2CCCCC2)cc(OC)c1OC`: the IC50 in assay [1] was above 100 µg/mL.
As for `COc1ccc(CC2(O)c3ccccc3C3=NCCCN32)cc1` (stereo unspecified), the IC50 in assay [2] and in assay [1] was above 100 µg/mL throughout.
`COc1cc(C(=O)C(=O)c2ccccc2C(=O)N2CCCCC2)cc(OC)c1OC`: in assay [1], the IC50 was above 100 µg/mL.
As to `Cn1nc(Cc2ccccc2)c2ccccc2c1=O`, the IC50 in assay [2] and in assay [1] was above 100 µg/mL throughout.
Regarding `CN(C)c1ccc(C(=C2C=CC(=[N+](C)C)C=C2)c2ccc(N(C)C)cc2)cc1.[Cl-]` [GENTIAN VIOLET], the IC50 in assay [5] (setting [6]) was 100 µg/mL and 245 µM.
`COC(=O)c1c(CCc2ccc(OC)cc2)cc(O)cc1OC`: the IC50 in assay [2] and in assay [1] was above 100 µg/mL each time.
Turning to `OC1(Cc2ccc3c(c2)OCO3)c2ccccc2C2=NCCN21` (stereo unspecified), the IC50 in assay [2] and in assay [1] was above 100 µg/mL each time.
As to `COc1ccc(Cc2nnc(O)c3ccccc23)cc1`, the IC50 in assay [2] and in assay [1] was above 100 µg/mL each time.
Consider `O=C(C(=O)c1ccccc1C(=O)N1CCCCC1)c1ccccc1`, for which the IC50 in assay [2] and in assay [1] was above 100 µg/mL in each case.
For `O=C1O/C(=C\c2ccccc2)c2ccccc21`, the IC50 in assay [2] is 45 µg/mL (≈ 202 µM); in assay [1], above 100 µg/mL.
On to `OC1(Cc2ccc(Cl)cc2)c2ccccc2C2=NCCCN21` (stereo unspecified), for which the IC50 in assay [1] is above 100 µg/mL.
`COc1ccc(Cc2nn(C)c(=O)c3ccccc23)cc1`: the IC50 in assay [2] and in assay [1] was above 100 µg/mL in each case.
On to `COc1ccc(CCc2cc(O)cc(OC)c2C(=O)N2CCCCC2)cc1`, for which the IC50 in assay [5] was 12 µg/mL and 33 µg/mL; in assay [3] it was 30 µg/mL and 81.3 µM.
For the compound `O=C(Cc1ccc(Cl)cc1)c1ccccc1C(=O)N1CCCCC1`, the IC50 in assay [2] and in assay [1] was above 100 µg/mL throughout.
As for `O=c1[nH]nc(Cc2ccccc2)c2ccccc12`, the IC50 in assay [2] and in assay [1] was above 100 µg/mL in each case.
Turning to `COc1ccc(/C=C2\OC(=O)c3ccccc32)cc1`, the IC50 in assay [2] and in assay [1] was above 100 µg/mL throughout.
For the compound `COc1ccc(CCc2cc(O)cc(OC)c2)cc1`, the IC50 in assay [2] and in assay [1] was above 100 µg/mL each time.
